# Source: US20070275953A1 (priority 2003, published 2007)
# Tested on: HIV-1 with WT (wild type) RT in P4 cells
# Test: Anti-HIV assay on P4 cell line, WT RT
# Assay type: cell-based
# Settings: not given
# Experimental: For the antiviral and the cytotoxicity assays, the drugs were diluted in complete DMEM medium. In these experiments, drugs were diluted in triplicate wells in a 96-well plate in six, 5 fold serial dilutions.
# Two days later, co-cultivation with SupT1 cells (a human T-cell lymphoma cell line) was initiated to facilitate rapid production of progeny virions. Production of virus was measured by using the Innotest HIV Antigen mAb p24 kit (Innogenetics). At the peak of production cultures were harvested and filtered. The virus stocks were stored at −80° C. until used.
# Anti-HIV activity and cytotoxicity of the compounds were tested on a P4 cell line. […] The P4 cells were cultured in complete DMEM medium supplemented with 10% fetal bovine serum (FBS), 0.5% of Penicillin/Streptomycin and G418 at 0.5 mg/ml. Exponentially growing cells were trypsinized, centrifuged and split twice weekly at 5.10^4 cells/ml.
# The P4 cells are HIV-infectible Hela-CD4 cells that carry the bacterial lacZ gene under the control of the HIV-1 long terminal repeat (LTR). In this cell line, transcription of the LacZ gene is driven by the HIV-1 LTR. […] In other words, in this system, the expression level of the β-galactosidase gene is proportional to the viral replication.
# (§1) Briefly, in the anti-HIV assay 100 Ål of P4 cells were plated in 96-well plate at a concentration of 0.4 10^5 cells/ml and incubated at 37° C., 5% CO2. After 48 h, the medium was removed and 100 Ål of the different drugs dilutions were added to the cells. Four hours after the addition of the drugs all cells were infected with equal amount of cell-free virus, corresponding to 100 ng of HIV p24 antigen. After 48 h of incubation at 37° C., 5% CO2, β-galactosidase activity was measured using chlorophenol red-β-D-galactopyranoside assays.
# Each assay was performed a minimum of three times. The 50% effective concentration (Ec50) was calculated from each dose response curve using the CurveExpert 1.3 software.
row,SMILES,antiviral activity compared with Z37A or the mixture of stereoisomers
1,"CCOC(=O)c1c(OC2CC(C)CC(C)C2)c(CC)c(C)[nH]c1=O (single isomer, unassigned) [Z37inv]",higher than the activity observed for either Z37A or the mixture of stereoisomers

# Same assay, conditions: Human immunodeficiency virus 1; P4 cell line, WT RT; read-out: EC50 WT
row,SMILES,EC50
1,"Cc1ccnc2c1NC(=O)c1cccnc1N2C1CC1 [Nevirapine, reference compound]",29 nM
2,"CCc1c(C)[nH]c(=O)c([N+](=O)[O-])c1OC1CC(C)CC(C)C1 (centres unmarked) [Z91inv, 3-nitro-5-ethyl-6-methyl-4-[(3,5-dimethylcyclohexyl)oxy]pyridine-2(1H)-one]",< 1 nM
3,"O=C1Nc2ccc(Cl)cc2[C@@](C#CC2CC2)(C(F)(F)F)O1 [Efavirenz, reference compound]",< 1 nM
4,"CCc1c(C)[nH]c(=O)c(N(C)C)c1OC1CC(C)CC(C)C1 (centres unmarked) [Z150, 3-(dimethylamino)-5-ethyl-6-methyl-4-[(3,5-dimethylcyclohexyl)oxy]pyridine-2(1H)-one]",< 1 nM

# Same assay, conditions: P4 cell line, WT RT
row,SMILES,SI (selectivity index = CC50/EC50)
1,"Cc1ccnc2c1NC(=O)c1cccnc1N2C1CC1 [Nevirapine, reference compound]",3448
2,"CCc1c(C)[nH]c(=O)c([N+](=O)[O-])c1OC1CC(C)CC(C)C1 (centres unmarked) [Z91inv, 3-nitro-5-ethyl-6-methyl-4-[(3,5-dimethylcyclohexyl)oxy]pyridine-2(1H)-one]",>37200
3,"CCc1c(C)[nH]c(=O)c(N(C)C)c1OC1CC(C)CC(C)C1 (centres unmarked) [Z150, 3-(dimethylamino)-5-ethyl-6-methyl-4-[(3,5-dimethylcyclohexyl)oxy]pyridine-2(1H)-one]",>66000

# Same assay, conditions: P4 cell line, WT RT; read-out: EC50 WT
row,SMILES,EC50
1,CCc1c(C)[nH]c(=O)c(CN=[N+]=[N-])c1OC1CC(C)CC(C)C1 (centres unmarked) [Z153],< 1 nM
2,"CCOC(=O)c1c(OC2CC(C)CC(C)C2)c(CC)c(C)[nH]c1=O (single isomer, unassigned) [Z37inv]",36 nM
3,CCc1c(C)[nH]c(=O)c(CO)c1OC1CC(C)CC(C)C1 (centres unmarked) [Z45inv],23 nM
4,CCc1c(C)[nH]c(=O)c(C)c1OC1CC(C)CC(C)C1 (centres unmarked) [Z154],< 1 nM
5,CCc1c(C)[nH]c(=O)c(CSC(C)=O)c1OC1CC(C)CC(C)C1 (centres unmarked) [Z114],7 nM

# Tested on: HIV-1 mutant Cys188RT in MT4 cells
# Test: Anti-HIV assay on MT4 cells, Cys188RT mutant
# Assay type: cell-based
# Settings: Human immunodeficiency virus 1, MT4, read-out: EC50 Cys188RT MT4
# Text: (§2) In order to introduce mutation(s) at the level of the pol gene coding for the RT in the pNL4-3 plasmid containing the complete viral genome (Adachi et al., 1986. J. Virol., Vol. 59 p 284-291) we used the “Quick change mutagenesis kit” (Stratagene). The following mutations were separately introduced in pNL4-3: L100I, K103N, V108I, Y181C, Y188C, and the double mutations K103N/V108I. These mutations were chosen because of the resistance that they confer to existing NNRTI. The production procedure of the mutant viral stocks is identical to the one described above.
# Anti-HIV activity of the compounds was tested on MT-4 cell line. The MT-4 cell line (Larder et al. 1989. Sciences, Vol. 243 p 1731) was received from the NIH AIDS Research and Reference Reagent Program. These cells were cultured in RPMI medium supplemented with 10% fetal bovine serum (FBS), and 1% Penicillin/Streptomycin. The cultures were split regularly to keep cells densities between 0.3 to 1.2 10^6 cells/ml.
# The MT-4 cells rapidly die upon infection by HIV. In this system there is an inverse correlation between cells survival and the amount of viral replication.
# Briefly, in the anti-HIV assay exponentially growing MT-4 cells were infected with HIV-1. 100 μl of infected MT-4 cells were seeded in 96-well plate at a concentration of 0.4 10^5 cells/ml, and 100 μl of the different drugs dilutions were added to the cells. After 4 days of incubation at 37° C., 5% CO2, cells survival was measured using MTS (3-(4-5-dimethylthiazol-2-yl)-5-(−(3-carboxymethoxyphenyl)-2-(4-sulfophenyl)-2H-tetrazolium) assays. This compound is reduced by viable cells in a colored soluble formazan salt.
# The absorbance was measured on a Benchmark™ Microplate Reader (Biorad) (λ=490 nm) and compared with 12 cell control replicates (nor virus nor drug added) and 12 virus control wells (no drug added). Each assay was performed a minimum of three times. The 50% effective concentration (EC50) was calculated from each dose response curve using the CurveExpert 1.3 software.
row,SMILES,EC50
1,"Cc1ccnc2c1NC(=O)c1cccnc1N2C1CC1 [Nevirapine, reference compound]",> 5000 nM
2,"CCc1c(C)[nH]c(=O)c([N+](=O)[O-])c1OC1CC(C)CC(C)C1 (centres unmarked) [Z91inv, 3-nitro-5-ethyl-6-methyl-4-[(3,5-dimethylcyclohexyl)oxy]pyridine-2(1H)-one]",43 nM
3,"O=C1Nc2ccc(Cl)cc2[C@@](C#CC2CC2)(C(F)(F)F)O1 [Efavirenz, reference compound]",1 nM
4,"CCc1c(C)[nH]c(=O)c(N(C)C)c1OC1CC(C)CC(C)C1 (centres unmarked) [Z150, 3-(dimethylamino)-5-ethyl-6-methyl-4-[(3,5-dimethylcyclohexyl)oxy]pyridine-2(1H)-one]",6 nM

# Same assay, conditions: MT4, mutant Cys188RT; read-out: EC50 Cys188RT MT4
row,SMILES,EC50
1,CCc1c(C)[nH]c(=O)c(CN=[N+]=[N-])c1OC1CC(C)CC(C)C1 (centres unmarked) [Z153],33 nM
2,CCc1c(C)[nH]c(=O)c(CSC(C)=O)c1OC1CC(C)CC(C)C1 (centres unmarked) [Z114],1680 nM

# Tested on: HIV-1 mutant Cys188RT in P4 cells
# Test: Anti-HIV assay on P4 cells, Cys188RT mutant
# Assay type: cell-based
# Settings: Human immunodeficiency virus 1, read-out: EC50 Cys188RT P4
# Text: as §2
# (§3) Anti-HIV activity and cytotoxicity of the compounds were tested on a P4 cell line. The P4 cell line (Clavel & Charneau, 1994. J. Virol., Vol. 68 p 1179-1185) was provided by Dr. François Clavel (Unité de recherche antivirale de l'hôpital Xavier Bichat Paris: Inserm). The P4 cells were cultured in complete DMEM medium supplemented with 10% fetal bovine serum (FBS), 0.5% of Penicillin/Streptomycin and G418 at 0.5 mg/ml. Exponentially growing cells were trypsinized, centrifuged and split twice weekly at 5.10^4 cells/ml.
# (§4) The P4 cells are HIV-infectible Hela-CD4 cells that carry the bacterial lacZ gene under the control of the HIV-1 long terminal repeat (LTR). In this cell line, transcription of the LacZ gene is driven by the HIV-1 LTR. As such, the cytoplasmic accumulation of β-galactosidase is strictly dependent on the presence of the HIV transactivator Tat produced during the intracellular viral replication (Clavel & Charneau, 1994. J. Virol., Vol. 68, p. 1179-1185). In other words, in this system, the expression level of the β-galactosidase gene is proportional to the viral replication.
# as §1
# (§5) The absorbance was measured on a Benchmark™ Microplate Reader (Biorad) (λ=570 nm) and compared with 12 cell control replicates (no virus or drug added) and 12 virus control wells (no drug added). Each assay was performed a minimum of three times. The 50% effective concentration (Ec50) was calculated from each dose response curve using the CurveExpert 1.3 software. As Nevirapine activity corresponds to its published values (10-100 nM), the data are consistent with other measures of viral replication.
row,SMILES,EC50
1,"Cc1ccnc2c1NC(=O)c1cccnc1N2C1CC1 [Nevirapine, reference compound]",1640 nM
2,"CCc1c(C)[nH]c(=O)c([N+](=O)[O-])c1OC1CC(C)CC(C)C1 (centres unmarked) [Z91inv, 3-nitro-5-ethyl-6-methyl-4-[(3,5-dimethylcyclohexyl)oxy]pyridine-2(1H)-one]",< 1 nM
3,"O=C1Nc2ccc(Cl)cc2[C@@](C#CC2CC2)(C(F)(F)F)O1 [Efavirenz, reference compound]",< 1 nM
4,"CCc1c(C)[nH]c(=O)c(N(C)C)c1OC1CC(C)CC(C)C1 (centres unmarked) [Z150, 3-(dimethylamino)-5-ethyl-6-methyl-4-[(3,5-dimethylcyclohexyl)oxy]pyridine-2(1H)-one]",< 1 nM

# Same assay, conditions: P4, mutant Cys188RT; read-out: EC50 Cys188RT P4
row,SMILES,EC50
1,CCc1c(C)[nH]c(=O)c(CN=[N+]=[N-])c1OC1CC(C)CC(C)C1 (centres unmarked) [Z153],< 1 nM
2,"CCOC(=O)c1c(OC2CC(C)CC(C)C2)c(CC)c(C)[nH]c1=O (single isomer, unassigned) [Z37inv]",10 nM
3,CCc1c(C)[nH]c(=O)c(CO)c1OC1CC(C)CC(C)C1 (centres unmarked) [Z45inv],8 nM
4,CCc1c(C)[nH]c(=O)c(C)c1OC1CC(C)CC(C)C1 (centres unmarked) [Z154],< 1 nM
5,CCc1c(C)[nH]c(=O)c(CSC(C)=O)c1OC1CC(C)CC(C)C1 (centres unmarked) [Z114],3 nM

# Tested on: HIV-1 mutant Asn103/Ile108RT in P4 cells
# Test: Anti-HIV assay on P4 cells, Asn103/Ile108RT double mutant
# Assay type: cell-based
# Settings: Human immunodeficiency virus 1, read-out: EC50 Asn103/Ile108RT F4
# Text: as §2, §3, §4, §1, §5
row,SMILES,EC50
1,"Cc1ccnc2c1NC(=O)c1cccnc1N2C1CC1 [Nevirapine, reference compound]",6250 nM
2,"CCc1c(C)[nH]c(=O)c([N+](=O)[O-])c1OC1CC(C)CC(C)C1 (centres unmarked) [Z91inv, 3-nitro-5-ethyl-6-methyl-4-[(3,5-dimethylcyclohexyl)oxy]pyridine-2(1H)-one]",180 nM
3,"O=C1Nc2ccc(Cl)cc2[C@@](C#CC2CC2)(C(F)(F)F)O1 [Efavirenz, reference compound]",9 nM
4,"CCc1c(C)[nH]c(=O)c(N(C)C)c1OC1CC(C)CC(C)C1 (centres unmarked) [Z150, 3-(dimethylamino)-5-ethyl-6-methyl-4-[(3,5-dimethylcyclohexyl)oxy]pyridine-2(1H)-one]",27 nM

# Same assay, conditions: column head prints F4; double mutant Asn103/Ile108RT; read-out: EC50 Asn103/Ile108RT F4
row,SMILES,EC50
1,CCc1c(C)[nH]c(=O)c(CN=[N+]=[N-])c1OC1CC(C)CC(C)C1 (centres unmarked) [Z153],70 nM
2,CCc1c(C)[nH]c(=O)c(CO)c1OC1CC(C)CC(C)C1 (centres unmarked) [Z45inv],19200 nM
3,CCc1c(C)[nH]c(=O)c(C)c1OC1CC(C)CC(C)C1 (centres unmarked) [Z154],88 nM
4,CCc1c(C)[nH]c(=O)c(CSC(C)=O)c1OC1CC(C)CC(C)C1 (centres unmarked) [Z114],1930 nM

# Tested on: HIV-1 mutant Cys181RT in P4 cells
# Test: Anti-HIV assay on P4 cells, Cys181RT mutant
# Assay type: cell-based
# Settings: Human immunodeficiency virus 1, read-out: EC50 Cys181RT P4
# Text: as §2, §3, §4, §1, §5
row,SMILES,EC50
1,"Cc1ccnc2c1NC(=O)c1cccnc1N2C1CC1 [Nevirapine, reference compound]",10000 nM
2,"CCc1c(C)[nH]c(=O)c([N+](=O)[O-])c1OC1CC(C)CC(C)C1 (centres unmarked) [Z91inv, 3-nitro-5-ethyl-6-methyl-4-[(3,5-dimethylcyclohexyl)oxy]pyridine-2(1H)-one]",46 nM
3,"O=C1Nc2ccc(Cl)cc2[C@@](C#CC2CC2)(C(F)(F)F)O1 [Efavirenz, reference compound]",< 1 nM
4,"CCc1c(C)[nH]c(=O)c(N(C)C)c1OC1CC(C)CC(C)C1 (centres unmarked) [Z150, 3-(dimethylamino)-5-ethyl-6-methyl-4-[(3,5-dimethylcyclohexyl)oxy]pyridine-2(1H)-one]",61 nM

# Same assay, conditions: P4, mutant Cys181RT; read-out: EC50 Cys181RT P4
row,SMILES,EC50
1,CCc1c(C)[nH]c(=O)c(CN=[N+]=[N-])c1OC1CC(C)CC(C)C1 (centres unmarked) [Z153],108 nM
2,"CCOC(=O)c1c(OC2CC(C)CC(C)C2)c(CC)c(C)[nH]c1=O (single isomer, unassigned) [Z37inv]",1970 nM
3,CCc1c(C)[nH]c(=O)c(CO)c1OC1CC(C)CC(C)C1 (centres unmarked) [Z45inv],496 nM
4,CCc1c(C)[nH]c(=O)c(CSC(C)=O)c1OC1CC(C)CC(C)C1 (centres unmarked) [Z114],87 nM
